# “Also recorded” adds a separate entry of the source.
# How the values were obtained:
# [1] = tested on: MC3T3-E1 cells; assay: Alkaline phosphatase (ALP) activity in osteoblast-like MC3T3-E1 cells; assay type: cell-based, mouse
# Method: FIG. 4 is an effect of MPMBP (1, 10, and 100 μM) on the osteoblast lineage cell lines MC3T3-E1 cells.
# FIG. 5 is an effect of bisphosphonate ([…] bisphosphonate, namely pamidronate, incadronate, and zoledronate. Respectively, 0.1, 1, and 10 μM) on the osteoblast-like cell line MC3T3-E1 cells.
# Using the mouse skull-derived osteoblast-like cell line MC3T3-E1 cells (RIKEN Bio Resource Center, CELL BANK: RCB 1126), with respect to the alkaline phosphatase (ALP) activity, known as one index of osteogenesis, and also known as the index of differentiation of osteoblast precursor cells to osteoblasts, what kind of effects MPMBP has was studied. After MC3T3-E1 cells were cultured in a α-MEM (10% bovine serum supplementation) and after the confluent was reached, under the presence or absence of MPMBP (1, 10, and 100 μM), for 6, 10, or 20 days, they were cultured in the culture plate of 48 wells. After completion of culturing, a cell homogenate was prepared, and using the method by Lowry et al (J Biochem 1954; 207: 19-37), the ALP activity (per well) was measured.
# [2] = tested on: maxillary alveolar bone of a rabbit; assay: Local subperiosteal injection at the maxillary alveolar bone of rabbits, pQCT and μCT analysis; assay type: in vivo
# Method: FIG. 2 is a proliferation of the bone induced on the maxillary alveolar bone of a rabbit resulting from local administration of MPMBP (administration of a 1 mM or 10 mM solution every 4 days for 6 times). (pQCT: peripheral Quantitative Computerized Tomography image). A horizontal section in the vicinity of the cervical site of the maxillary molar teeth. Exp: A test side (side to which MPMBP was administered), cont: a control side (side to which 0.9% NaCl was administered). Arrows represent injected sites.
# FIG. 3 is a proliferation of the bone induced on the maxillary alveolar bone of a rabbit resulting from local administration of MPMBP (administration of a 1 mM or 10 mM solution every 4 days for 6 times) (μCT image: microfocus Computerized Tomography image). A forehead cut of the midline region of the right and left maxillary first molars. exp: A test side (side to which MPMBP was administered). cont: A control side (side to which 0.9% NaCl was administered).
# A total of 9 Japanese male rabbits with the average weight of 2.2 kg were used and they were divided into 3 groups of 3 rabbits each. Under the periosteum of the palatal alveolar bone between the teeth of the maxillary first molar and the maxillary second molar on the left side (experiment side) of the domestic rabbits in each group, 50 μl of a 0.1, 1.0, or 10 mM MPMBP solution was injected every 4 days for 6 times (all performed under anesthesia using Nembutal). To the same sites on the opposite side (the right side), 50 μl of a physiological saline solution (0.9% NaCl solution) was injected in the same manner, and was set to be a control. On the 4th day after the final injection, the animals were euthanized with excessive administration of Nembutal, and the maxillary bone was removed and fixed with a 10% neutral formalin solution (pH 7.4). With the alveolar bone in the vicinity of drug administration sites and the palatine bone as the region of interest, 3-dimensional analysis was performed using a pQCT (peripheral Quantitative Computerized Tomography; FIG. 2) and a μCT (microfocus Computerized Tomography; FIG. 3). […] This type of the osteogenesis promoting effect of MPMBP in the living body has not been reported with the existing bisphosphonate compound.
# [3] = tested on: calvariae (bone organ culture system of a mouse); assay: Bone organ culture system of mouse calvariae, staining and confocal laser scanning microscopy; assay type: cell-based; conditions: for bone resorption resulting from LPS, size of the resorption cavity: Nomarski images; for production of collagen (type I collagen fibers): MPMBP 100 μM, alendronate 2.0 μM, no heparin, vs control bone (FIG. 9); for production of the type I collagen / bone matrix: zoledronate 2.5 μM compared with MPMBP, presence or absence of LPS (FIG. 8)
# Method: Using the bone organ culture system, what kind of effects MPMBP has on production of the bone matrix was studied. From 3-6 day old mice, calvariae were collected aseptically. These were cultured using the Stern and Krieger method (Calcif Tissue hit 1983; 35: 172-17) with DMEM (10% bovine serum supplementation, no supplementation of heparin, supplementation or no supplementation of LPS 10 μg/ml) for 48 hours. After completion of culturing, with the method described by Suzuki, Takeyama et al (J Histochem Cytochem 2005; 53: 1525-1537), a double staining of the type I collagen and alkaline phosphatase (FIG. 6 and FIG. 8), a double staining of the type I collagen and alizarin red (FIG. 7), and an immunohistochemical staining using the type I collagen (FIG. 9) were performed, and using a confocal laser scanning microscope, they were observed.
# The upper panels are Nomarski differential interference contrast images of the bone surface. The middle panels are images of the bone surface after the double staining of the type I collagen and alkaline phosphatase was performed, and the lower panels are images of the bone section after the double staining of the type I collagen and alkaline phosphatase was performed, respectively. Using rhodamine for the type I collagen, red color could be observed, and using a substrate (ELF-97) that fluoresces when dephosphorylated for alkaline phosphatase (stain osteoblasts), the enzyme activity could be observed in green color.
# The upper panels are Nomarski differential interference contrast images of the bone surface. […] The lower panels are images of the bone section after the double staining of the type I collagen and alizarin red was performed, and the collagen fibers could be observed in green color resulting from Alexa Fluor-488 and the bone mineral could be observed in red color resulting from alizarin red.
# After the immunological double staining of the type I collagen and alkaline phosphatase was performed, as was the case with FIG. 6, using Alexa Fluor 594 for the type I collagen, it was stained in red color, and using the substrate (ELF-97) that fluoresces when dephosphorylated for alkaline phosphatase (osteoblasts), the enzyme activity was stained in green color. The upper panels are observation images of the bone surface and the lower panels are images of the bone section.
# [4] = tested on: MC3T3-E1 cells; assay: Expression of osteogenesis-related genes in MC3T3-E1 cells by real-time RT-PCR; assay type: cell-based, mouse
# Excerpt: As an experiment to clarify the mechanism of the osteogenesis promoting action of MPMBP, using the osteoblast-based cell line MC3T3-E1 cells, the effect on expression of osteogenesis-related genes was studied using the real-time RT-PCR method. Moreover, the effect was compared with the action of zoledronate.
# In the experiment, the osteoblast-based cell line MC3T3-E1 cells that reached the confluent after cultured with α-MEM (10% bovine serum supplementation) were used. For 3 days, they were cultured (used a dish with the diameter of 60 mm) under the presence of MPMBP (1, 10, or 100 μM) or zoledronate (0.1, 0.5 or 2.00 μM). After completion of culturing, cells were scraped and using Trizol, RNA was extracted. From 5 μg of RNA, cDNA was synthesized, specific primers were set with respect to alkaline phosphatase, the type I-α collagen, osteocalcin, and bone sialoprotein genes, PCR amplification was performed in the thermal cycler, and the amount of expression of the above genes was measured.
# [5] = 0.1, 1 and 10 μM, culture up to 3 weeks (FIG. 5)
# [6] = 50 μl of 1.0 mM or 10 mM solution under the periosteum every 4 days for 6 times, vs 0.9% NaCl on the opposite side
# [7] = 1, 10 and 100 μM, cultured 6, 10 or 20 days (FIG. 4)
structure (smiles),measurement,setting,value
O=P(O)(O)C(NC1CCCCCC1)P(=O)(O)O [incadronate],ALP activity (per well),[1]; [5],the alkaline phosphatase activity is inhibited or the alkaline phosphatase activity is not affected; also recorded: the ALP activity was significantly reduced in high concentration
NCCC(O)(P(=O)(O)O)P(=O)(O)O [pamidronate],ALP activity (per well),[1]; [5],the alkaline phosphatase activity is inhibited or the alkaline phosphatase activity is not affected; also recorded: no significant change was observed
"CSc1ccc(SC(P(=O)([O-])[O-])P(=O)(O)O)cc1.[Na+].[Na+] [MPMBP, [4-(methylthio)phenylthio]-methanebisphosphonic acid.disodium salt]",bone changes (osteogenesis promoting effect) in the 0.1 mM group,"[2]; 0.1 mM, 50 μl every 4 days for 6 times",the effect was not clear
same,"bone changes, 10 mM group compared to 1.0 mM group","[2]; 10 mM vs 1.0 mM, 50 μl every 4 days for 6 times",stronger for the 10 mM administration group
same,"bone addition to the palatal side of the alveolar bone (proliferation of the alveolar bone), pQCT",[2]; [6],a proliferation of the alveolar bone is observed; also recorded: bone addition to the palatal side of the alveolar bones
same,"thickness of the palatine bone from the alveolar site to the middle of the palate, μCT",[2]; [6],the thickness of the palatine bone is increasing; also recorded: the thickness of the palatine bone increased
same,ALP activity (per well),[1]; [7],increase an alkaline phosphatase activity in a dose-dependent manner and with time; also recorded: increased the ALP activity in a dose-dependent manner and with time
same,"bone resorption resulting from LPS, size of the resorption cavity","[3]; 48 hours, LPS, vs control bone (FIG. 7)",the bone resorption was inhibited resulting from LPS and the size of the resorption cavity that was formed from LPS was significantly smaller; also recorded: the bone resorption was inhibited resulting from LPS and the size of the resorption cavity that was formed by LPS was significantly small
same,"production of the bone matrix (type I collagen, Alexa Fluor-488)","[3]; 48 hours, presence or absence of LPS, vs control bone (FIG. 7)",production of the bone matrix (sites in green color) was promoted significantly; also recorded: production of the bone matrix (sites in green color) significantly increased
same,thickness of the bone mineral (alizarin red),"[3]; 48 hours, vs control bone (FIG. 7)",the thickness of the bone mineral (sites in red color) was thick
same,production of the bone matrix (type I collagen),"[3]; MPMBP 25 μM, 48 hours, DMEM, presence or absence of LPS 10 μg/ml, vs control bone (FIG. 6)",production of the bone matrix (sites in red color) was promoted significantly; also recorded: production of the bone matrix (type I collagen: sites in red) significantly increased
same,"bone resorption resulting from LPS, size of the resorption cavity","[3]; MPMBP 25 μM, 48 hours, LPS 10 μg/ml, vs control bone (FIG. 6)",the bone resorption was inhibited resulting from LPS and the size of a resorption cavity that was formed from LPS was significantly smaller; also recorded: the bone resorption was inhibited resulting from LPS and the size of the resorption cavity that was formed by LPS was significantly small
same,production of collagen (type I collagen fibers),[3]; 48 hours,a large amount of thick collagen fibers was produced in a fascicular shape and the bone surface was densely covered
same,concentration indicating the same level of the inhibitory action of the bone resorption in the bone organ culture system,[3]; bone organ culture system,100 µM
same,production of the type I collagen / bone matrix,[3]; 48 hours,significantly promoted production of the bone matrix; also recorded: significantly increased production of the bone matrix
same,"expression of alkaline phosphatase, type I-α collagen, osteocalcin and bone sialoprotein genes","[4]; MPMBP 100 μM (1, 10, 100 μM tested), 3 days (72 hours) (FIG. 10)",promoted gene expression of all of the above; also recorded: increased significantly in all genes
"O=P(O)(O)C(O)(Cn1ccnc1)P(=O)(O)O [zoledronate, reference compound]",ALP activity (per well),[1]; [5],the alkaline phosphatase activity is inhibited or the alkaline phosphatase activity is not affected; also recorded: the ALP activity was significantly reduced in high concentration
same,production of the type I collagen / bone matrix,[3]; 48 hours,inhibited production of the type I collagen
same,"expression of alkaline phosphatase, type I-α collagen, osteocalcin and bone sialoprotein genes","[4]; zoledronate 0.1, 0.5 or 2.00 μM, 3 days (FIG. 11)",no significant change was caused to the amount of expression of these genes
same,"expression of alkaline phosphatase, type I-α collagen, osteocalcin and bone sialoprotein genes","[4]; zoledronate 0.1, 0.5 or 2.00 μM, 3 days (FIG. 11), listed as Zoledronate",did not significantly affect gene expression of all of the above
"NCCCC(O)(P(=O)(O)O)P(=O)(O)O [alendronate, reference compound]",production of collagen (type I collagen fibers),[3]; 48 hours,"production of the collagen increased were observed; however, the degree was small, compared to MPMBP"
O=P(O)(O)C(Cl)(Cl)P(=O)(O)O [clodronate],ALP activity (per well),[1]; [7],increase an alkaline phosphatase activity in a dose-dependent manner and with time; also recorded: increased the ALP activity

# — patent US20110230447A1, “OSTEOGENESIS PROMOTER COMPRISING [4-(METHYLTHIO)PHENYLTHIO]METHANEBISPHOSPHONIC ACID OR PHARMACEUTICALLY ACCEPTABLE SALT THEREOF AS ACTIVE INGREDIENT” (Tohoku University, priority 2008, published 2011)
